Results published in US10967000B2, “Cell-penetrating peptide, conjugate comprising same and composition comprising same” (GemVax & KAEL Co., Ltd., priority 2012, dated 2021).
No end group written: not given here. *: point of attachment. FITC = O=C1OC2(c3ccc(O)cc3Oc3cc(O)ccc32)c2ccc(NC(=S)*)cc21

How the values were obtained:
CHO and HepG2 cells = test: Uptake analysis of pep1-FITC in vitro by flow cytometry (primary experiment); type: cell-based
Description: Flow cytometry and Confocal microscopy analysis were performed to compare the degree of cellular uptake among differentcell lines treated with pep1 (SEQ ID NO: 1) and the previously known PTD, TAT ([…]) (SEQ ID NO: 10) of HIV.
(§1) Cells were cultured at 37° C., 5% CO2 incubator and grown to 90˜100% confluence. The confluence. The medium was removed and washed with PBS, 1 mL of OPTI-MEM was added to each well and cultured at 37° C., 5% CO2 incubator for an hour for cell starvation. After washing with OPTI-MEM once, cells were treated with peptide in OPTI-MEM (concentration of […]) and FITC (concentration of 10 μM), cultured at 37° C., 5% CO2 incubator. After removing the medium, cells were washed with 1×PBS three times and harvested using Trysin/EDTA. The cellular uptake of FITC and the rest of FITC-conjugated peptide was compared and analyzed with untreated cell cells as a control.

Huh7 cell line = test: Flow cytometry of cell penetrating property in Huh7 cell line; type: cell-based, human
Description: (§2) The cell line was divided in a 6-well plate and cultured in a medium containing 10% fetal bovine serum (Invitrogen, USA), 100 μg/ml penicillin, 100 units/ml streptomycin at 37° C., 5% CO2 incubator for 12 hours. After washing the cell line with PBS, starvation was induced in a Minimum Essential Medium for an hour. 20 uM of each carrier peptide was treated and cultured at 37° C. for an hour. After repeating the step of washing the cells with PBS for three times, Trypsin-EDTA was treated form 10 mins at 37° C. to separate the carrier peptide on the outside of the cell. cells were collected with refrigerated PBS and centrifugation was performed to repeat the step of washing the cells for three times. After then, the cells were suspended in 0.5 ml of PBS containing 4% Paraformaldehyde and fluorescence of the cells was analyzed using FACS Calibur (Becton Dickinson). The cellular uptake aspect of control and various peptides combined with FITC was compared and analyzed by MFI (Mean Fluorescence Intensity).
To investigate cell penetrating property of PEP1, flow cytometry was performed in Huh7 cell line treated with PEP1. The analytical methods used were same as described in above (1) HeLa cell line analysis. […] (FIG. 9 and FIG. 10)

human T lymphocyte = test: FACS of cell penetrating property in human T lymphocyte; type: cell-based
Description: as §2
To investigate cell penetrating property of PEP1, the peptide was treated in human T lymphocyte, and FACS (Fluorescence-activated sell sorting) was performed as flow cytometry analysis. The analytical method used was same as described in above (1) HeLa cell line analysis. […] (FIG. 11 and FIG. 12)

Huh7, bmDC, CHO, COS7 = test: Flow cytometry depending on concentration in various cell lines; type: cell-based
Description: as §1
(§3) Cell penetrating property of PEP1 was investigated by treating PEP1 with various cell various cell lines depending on concentrations and time. Specific analytical methods followed the methods described in Example 2. […] In the case of HepG2 cell line, cell penetrating property of TAT was increased whereas that of PEP1 was decreased at a concentration of 50 μM. […] When observing cell penetrating property of the peptide depending on time, the cell penetrating property was increased in Huh7, MCF7 and HeLA cell lines. Especially, in MCH7 cell line when 5 μM of the peptide was treated, cell penetrating property was increased 10 times higher in all time (FIG. 24 to FIG. 26)

HepG2 cell line = test: Flow cytometry depending on concentration, HepG2; type: cell-based, human; conditions: HepG2, 50 μM
Description: as §1, §3

MCF7 cell line = test: Flow cytometry depending on concentration and time, MCF7; type: cell-based, human
Description: as §1, §3

[1] = tested on: Huh7, MCF7 and HeLA cell lines; test: Flow cytometry depending on time; type: cell-based, human
Description: as §1, §3

[2] = tested on: THP1 (Human mononuclear cell line); test: Flow cytometry of cell penetrating property, THP1; type: cell-based
Text: (§4) Jurkat (Human T cell line), THP1 (Human mononuclear cell line), Raji (Human B cell line), K562 cell line (Human Leukemia cell line) were used as enriched cell line to treat the peptide depending on concentrations, temperature and time and to analyze the cell penetrating property of the peptide. […] There was no difference in cell penetrating property of PEP1 in all cell lines depending on temperature.

Jurkat, THP1, Raji, K562 = test: Cell penetrating property depending on concentration, temperature and time in enriched cell lines; type: cell-based, human
Text: as §4

human PBMC [3] = test: Flow cytometry of cell penetrating property in human PBMC; type: cell-based
Description: PBMC (peripheral blood mononuclear cell) and lymphocytes were prepared from the human blood samples (50 ml) collected from healthy subjects using Biocoll Separating Solution (Biochrom AG, Berlin, Germany).
PBMC separated from human blood was used to treat the peptide depending on concentrations, temperature and time and to analyze the cell penetrating property of the peptide. […] Depending on concentrations, cell penetrating property of PEP1 was increased in both lymphocytes and the monocytes. […] (FIG. 32 to FIG. 34)

human PBMC [4] = test: Flow cytometry after chemical treatment, human PBMC; type: cell-based; conditions: whole PBMC, chemical treatment an hour before peptide
Description: With PBMC separated from human blood, chemical treatment utilization analysis was performed to verify a mechanism of cell penetration. Concentration of chemical treatment was decided based on the data reported in JBC(278(36), 34141-34149 in […]. OPTI-MEM was treated with chemical treatment and washed with PBS an hour before PEP1 peptide was treated and flow cytometry analysis was performed.
(§5) To compare and analyze the cell penetrating property of the peptide using various various antibodies, HSP70, enolase, GAPDH (santacruz), HSP90 antibodies were used. Cells were treated with heparin (10 μg/ml), methyl beta cyclodextrin (5 mM), nocodazole (20 μM), Brefeldin A (10 μM), cytochalasin F (5 μM) or choloroqune (100 μM) an hour before cells were cultured by the peptide. After then, cells were washed with PBS, peptide treatment was performed by flow cytometry analysis as the same method described in Example 2. Anti-HSP70, anti-Enolase and anti-GAPDH antibodies were purchased from Santacruz and anti-HSP90 antibody as purchased from Abcam. To analyze the role of each protein in penetration into cells, cells were treated with antibodies corresponding to the proteins with the same method.

Jurkat cell line = test: Flow cytometry after chemical treatment, Jurkat; type: cell-based, human; conditions: all of the chemical treatment
hPBMC = test: Cell penetrating property after treatment with various antibodies; type: cell-based, human
Description: The fact that HSP70/90 plays an important role in cell penetrating property of Pep1 was analyzed using HSP70/90 antibody. Antibodies of GAPDH, HSP70, HSP90 and enolase were treated in PBMC separated from human blood, lymphocyte, and Jurkat to perform flow cytometry. Antibodies of GAPDH and enolase were used as control.
as §5

Raji (Human B cell line) = test: Flow cytometry of cell penetrating property, Raji; type: cell-based
Text: as §4

[5] = tested on: K562 cell line (Human Leukemia cell line); test: Flow cytometry of cell penetrating property, K562; type: cell-based
Text: as §4

Huh7, HepG2, CHO, bmDC = test: Flow cytometry and confocal analysis depending on location of FITC; type: cell-based; conditions: fluorescence microscope
Description: as §2
To investigate cell penetrating property of PEP1 in various cell lines, flow cytometry and Confocal microscope analysis were performed using a conjugate of PEP1 combined with FITC at N, and C-terminal of the peptide. The analytical method used was same as described in above (1) HeLa cell line analysis. The cell lines used were Huh7, HepG2, CHO, bmDC. […] (FIG. 14)

luciferase in Huh7 cells = test: Luciferase assay with siRNA-CPP conjugates, Huh7; type: cell-based, human; conditions: Huh cell line, siRNA 400 nM, 16 hours
Description: Huh7 (human hepatocellular carcinoma) cells obtained from ATCC was cultured in a RPMI 1640 medium (Hyclon) containing 10% fetal bovine serum (Invitrogen Co., Carlsbad, Calif., USA), […] L-glutamine, 100 ug/ml penicillin and 100 units/ml of streptomycin at 37° C., 5% CO2 incubator.
(§6) 2×10^5 of Huh7 cells were inserted into each well of a 24 well plate and were grown. Transient transfection on the cells was performed using 2 ug of luciferase objective DNA and lipofectamin 2000 (Invitrogen Co., Carlsbad, Calif., USA). After 4 hours, lipofectamin 2000 was perfectly washed with PBS several times; siRNA of final concentration of […] was treated in 500 ul of Opti-MEM (Invitrogen Co., Carlsbad, Calif., USA) and was reacted at 37° C. incubator for 16 hours. To terminate the reaction, cells were washed with PBS and proteins were lysed using Reporter Lysis Buffer (Progema Co., Madison, Wis., USA) solution and the luminescence was measured by luminometer (Turner BioSystem, Sunnyvale, Calif., USA) using luciferase reagent (Promega Co., Madison, Wis., USA). Efficacy of siRNA was corrected by Bradford protein assay.

luciferase in CHO cell = test: Luciferase assay with siRNA-CPP conjugates, CHO; type: cell-based
Description: as §6
To verify cell penetrating property of pep1, siRNA for luciferase purpose was produced produced and luciferase activation was measured using Huh7 (human hepatocelular carcinoma) cells and CHO cell line. The result verified that activation of penetratine and pep1 in siRNA combined with luciferase was reduced approx. 28%, 20% compared with penetratin and pep1 in siRNA combined with control in Huh cell line. […]

For “EARPALLTSRLRFIPK (listed as Homo sapiens) [pep1]”, the “cell penetrating ability depending on position of FITC” value (CHO and HepG2 cells) was “best when FITC was conjugated with lysine residue in C terminal”, the “cell penetrating ability compared with TAT” value (CHO and HepG2 cells; FITC-labelled peptides) was “better cell penetrating ability than TAT” and the “cell penetrating property compared with TAT and control” value (Huh7 cell line) was “lower than that of TAT but higher than that of control”. The “cell penetrating property, times higher than HIV derived TAT” value (human T lymphocyte) was 6 times, the “cell penetrating property, times higher than control FITC” value (human T lymphocyte) was 25 times and the “cell penetrating property depending on concentrations” value (Huh7, bmDC, CHO, COS7) was “tendency to increase”. For the same substance, the “cell penetrating property at a concentration of 50 μM” value (HepG2 cell line) was “decreased”, the “cell penetrating property, times higher than TAT” value (MCF7 cell line; MCF cell line) was 4 times and the “cell penetrating property, times higher in all time” value (MCF7 cell line; MCH7 cell line, 5 μM of the peptide, comparator not stated) was 10 times. The “cell penetrating property depending on time” value [1] was “increased”, the “cell penetrating property depending on time” value [2] was “decreased over time” and the “cell penetrating property depending on concentrations” value (Jurkat, THP1, Raji, K562; all cell lines) was “tendency to increase”. The “cell penetrating property depending on temperature” value (Jurkat, THP1, Raji, K562; all cell lines) was “no difference”, the “increase of cell penetrating property depending on time” value (Jurkat, THP1, Raji, K562; cell lines other than THP1) was “more than 3 times” and the “cell penetrating property, increase (times)” value (human PBMC [3]; lymphocytes) was 1.8 times. The “cell penetrating property depending on concentrations” value (human PBMC [3]; lymphocytes and monocytes) was “increased”, the “cell penetrating property depending on time” value (human PBMC [3]; lymphocytes and monocytes) was “tendency to increase” and the “increase of cell penetrating property compared to TAT” value (human PBMC [3]; monocytes, 5 hours) was “more than 20%”. For the same substance, the “cell penetrating property depending on concentrations and time” value (human PBMC [3]; whole PBMC) was “increased”, the “cell penetrating property, times higher than TAT” value (human PBMC [3]; whole PBMC) was 1.4 times and the “effect of chemical treatment (MatCD and others) on cell penetrating property” value (human PBMC [4]) was “tend to be suppressed”. The “effect of chemical treatment on cell penetrating property” value (Jurkat cell line) was “tendency to suppress” and the “absorption after treatment with HSP70 and HSP90 specific antibodies” value (hPBMC) was “remarkably reduced”.
For YGRKKRRQRRR [TAT, reference compound], the “cell penetrating property depending on concentrations” value (Huh7, bmDC, CHO, COS7) was “tendency to increase”, the “cell penetrating property at a concentration of 50 μM” value (HepG2 cell line) was “increased” and the “cell penetrating property, TAT compared with PEP1” value (Raji (Human B cell line)) was “higher cell penetrating property than PEP1”. For the same substance, the “cell penetrating property, TAT compared with PEP1” value [5] was “higher cell penetrating property than PEP1”, the “cell penetrating property depending on concentrations and time” value (human PBMC [3]; whole PBMC) was “increased” and the “effect of chemical treatment (MatCD and others) on cell penetrating property” value (human PBMC [4]) was “increased”. For the same substance, the “effect of chemical treatment on cell penetrating property” value (Jurkat cell line) was “no effect” and the “absorption after treatment with HSP70 and HSP90 specific antibodies” value (hPBMC) was “not affected”.
In the case of “pep1-FITC: pep1 labeled with FITC at the C-terminal (lysine) (EARPALLTSRLRFIPK(FITC); listed as Homo sapiens)”, the “penetration into the cytoplasm, C-terminal vs N-terminal FITC” value (Huh7, HepG2, CHO, bmDC) is reported as “higher cell penetrating property to penetrate into the cytoplasm than PEP1 combined with FITC at N-terminal”, the “absorption after treatment with HSP70 and HSP90 specific antibodies” value (hPBMC) is reported as “remarkably reduced” and the “absorption after treatment with GAPDH or Enolase specific antibodies” value (hPBMC; control antibodies) is reported as “no effect”.
“siLuc conjugation with Mercaptoacetyl-Ahx-EARPALLTSRLRFIPK (EARPALLTSRLRFIPK-OH; not fully specified (N-terminus); printed as Mercaptoacetyl-Ahx-EARPALLTSRLRFIPK; also: conjugated to luciferase siRNA; UniProt O14746 611-626, looked up, fragment) [siLuc-pep1, luciferase siRNA conjugated to pep1 via thiol-maleimide]” was tested, and the “reduction of luciferase activation compared with the same peptide in siRNA combined with control” value (shortened to “reduction of luciferase activation”) (luciferase in Huh7 cells) was ~20% and the “inhibition of luciferase activity” value (luciferase in CHO cell) was “about 30%”.
For “siLuc conjugation with Mercaptoacetyl-Ahx-LRALPKRPFISRLTEA [siLuc-scrambled pep1]”, the “reduction of luciferase activation” value (luciferase in Huh7 cells) was “no significant difference”.
In the case of “siLuc conjugation with Mercaptoacetyl-Ahx-RQIKIWFQNRRMKWKK [siLuc-Penetratin]”, the “reduction of luciferase activation” value (luciferase in Huh7 cells) is reported as “approx. 28%”.
For “siLuc conjugation with Mercaptoacetyl-Ahx-YGRKKRRQRRR (not fully specified (N-terminus); printed as Mercaptoacetyl-Ahx-YGRKKRRQRRR; also: conjugated to luciferase siRNA; UniProt P04608 47-57, looked up, fragment) [siLuc-Tat(47-57)]”, the “reduction of luciferase activation” value (luciferase in Huh7 cells) was “no significant difference”.
